Measured values taken from ChEMBL document CHEMBL5465560, “Selectivity Literature for EUbOPEN Chemogenomic Library” (2024).

Legend:
[1] = target: Dual specificity protein kinase CLK3 (Homo sapiens, UniProt P49761); experiment: Selectivity interaction (Enzymatic assay (Eurofins)) EUB0001049a CLK3
[2] = target: LIM domain kinase 1 (Homo sapiens) (UniProt P53667); experiment: Selectivity interaction (Kinase panel (Invitrogen)) EUB0000639a LIMK1; conditions: at 200 nM
[3] = target: Interferon-induced, double-stranded RNA-activated protein kinase (Homo sapiens) (UniProt P19525); experiment: Selectivity interaction (ActivX KiNativ screen (kinase selectivity in THP-1 cell lysates)) EUB0000639a EIF2AK2; type: subcellular; conditions: lysate
Chain of Interferon-induced, double-stranded RNA-activated protein kinase (Homo sapiens) (P19525 whole entry): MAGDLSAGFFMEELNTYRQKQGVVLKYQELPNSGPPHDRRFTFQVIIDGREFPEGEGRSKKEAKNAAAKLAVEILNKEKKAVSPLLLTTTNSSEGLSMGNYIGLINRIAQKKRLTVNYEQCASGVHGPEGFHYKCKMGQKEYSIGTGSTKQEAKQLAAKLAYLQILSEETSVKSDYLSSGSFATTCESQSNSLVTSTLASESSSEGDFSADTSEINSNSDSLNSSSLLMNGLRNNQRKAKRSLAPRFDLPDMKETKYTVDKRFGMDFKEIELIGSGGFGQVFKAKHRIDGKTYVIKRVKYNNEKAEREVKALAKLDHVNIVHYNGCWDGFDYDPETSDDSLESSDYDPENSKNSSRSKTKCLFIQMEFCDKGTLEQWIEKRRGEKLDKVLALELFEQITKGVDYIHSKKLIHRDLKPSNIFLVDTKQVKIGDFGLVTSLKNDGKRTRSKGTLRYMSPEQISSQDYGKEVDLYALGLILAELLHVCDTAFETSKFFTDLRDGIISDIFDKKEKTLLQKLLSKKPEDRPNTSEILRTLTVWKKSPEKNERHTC

[4] = target: T1, Serine/threonine-protein kinase ULK3 (Homo sapiens) (UniProt Q6PHR2); experiment: Selectivity interaction (ActivX KiNativ screen (kinase selectivity in THP-1 cell lysates)) EUB0000639a ULK3; type: subcellular; conditions: lysate, at 0.01 µM
T1 sequence (whole entry): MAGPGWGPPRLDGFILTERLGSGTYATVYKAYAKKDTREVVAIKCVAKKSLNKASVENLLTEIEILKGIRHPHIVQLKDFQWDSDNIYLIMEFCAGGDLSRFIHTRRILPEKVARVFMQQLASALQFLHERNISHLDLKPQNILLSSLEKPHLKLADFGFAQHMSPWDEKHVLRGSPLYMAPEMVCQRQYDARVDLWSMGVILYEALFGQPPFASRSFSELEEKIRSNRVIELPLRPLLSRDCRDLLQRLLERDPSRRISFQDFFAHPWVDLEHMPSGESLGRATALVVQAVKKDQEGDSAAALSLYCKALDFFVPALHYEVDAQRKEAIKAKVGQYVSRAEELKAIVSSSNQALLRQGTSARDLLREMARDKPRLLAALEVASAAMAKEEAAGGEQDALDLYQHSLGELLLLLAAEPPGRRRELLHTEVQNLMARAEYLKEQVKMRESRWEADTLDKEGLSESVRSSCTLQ

[5] = target: T2, Tyrosine-protein kinase Tec (Homo sapiens) (UniProt P42680); experiment: Selectivity interaction (Ambit KINOMEscan and KiNATiv profiling in Jurkat cells) EUB0000090b TEC; type: cell-based; conditions: at 1 µM
T2 sequence (whole entry): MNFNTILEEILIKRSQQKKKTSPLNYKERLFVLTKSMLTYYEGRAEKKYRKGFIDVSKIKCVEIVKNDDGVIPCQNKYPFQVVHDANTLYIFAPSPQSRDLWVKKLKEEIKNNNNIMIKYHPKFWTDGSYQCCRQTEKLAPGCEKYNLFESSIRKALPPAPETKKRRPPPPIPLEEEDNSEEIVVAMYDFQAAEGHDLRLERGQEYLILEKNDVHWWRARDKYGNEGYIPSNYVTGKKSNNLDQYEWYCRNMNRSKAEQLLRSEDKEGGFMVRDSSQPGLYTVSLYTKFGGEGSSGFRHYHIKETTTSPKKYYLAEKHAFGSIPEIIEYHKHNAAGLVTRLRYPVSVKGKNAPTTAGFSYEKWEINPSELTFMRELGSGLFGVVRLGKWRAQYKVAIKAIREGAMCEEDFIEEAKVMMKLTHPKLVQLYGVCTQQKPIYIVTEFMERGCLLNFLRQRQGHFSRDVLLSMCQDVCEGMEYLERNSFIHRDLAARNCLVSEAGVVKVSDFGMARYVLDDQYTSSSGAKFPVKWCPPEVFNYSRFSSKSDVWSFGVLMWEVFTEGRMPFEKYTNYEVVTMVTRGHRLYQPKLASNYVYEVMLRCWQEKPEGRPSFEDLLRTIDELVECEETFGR

[6] = target: T3, Ankyrin repeat and protein kinase domain-containing protein 1 (Homo sapiens) (UniProt Q8NFD2); experiment: Selectivity interaction (KinomeScan (DiscoverX)) EUB0000045b ANKK1
T3 sequence (whole entry): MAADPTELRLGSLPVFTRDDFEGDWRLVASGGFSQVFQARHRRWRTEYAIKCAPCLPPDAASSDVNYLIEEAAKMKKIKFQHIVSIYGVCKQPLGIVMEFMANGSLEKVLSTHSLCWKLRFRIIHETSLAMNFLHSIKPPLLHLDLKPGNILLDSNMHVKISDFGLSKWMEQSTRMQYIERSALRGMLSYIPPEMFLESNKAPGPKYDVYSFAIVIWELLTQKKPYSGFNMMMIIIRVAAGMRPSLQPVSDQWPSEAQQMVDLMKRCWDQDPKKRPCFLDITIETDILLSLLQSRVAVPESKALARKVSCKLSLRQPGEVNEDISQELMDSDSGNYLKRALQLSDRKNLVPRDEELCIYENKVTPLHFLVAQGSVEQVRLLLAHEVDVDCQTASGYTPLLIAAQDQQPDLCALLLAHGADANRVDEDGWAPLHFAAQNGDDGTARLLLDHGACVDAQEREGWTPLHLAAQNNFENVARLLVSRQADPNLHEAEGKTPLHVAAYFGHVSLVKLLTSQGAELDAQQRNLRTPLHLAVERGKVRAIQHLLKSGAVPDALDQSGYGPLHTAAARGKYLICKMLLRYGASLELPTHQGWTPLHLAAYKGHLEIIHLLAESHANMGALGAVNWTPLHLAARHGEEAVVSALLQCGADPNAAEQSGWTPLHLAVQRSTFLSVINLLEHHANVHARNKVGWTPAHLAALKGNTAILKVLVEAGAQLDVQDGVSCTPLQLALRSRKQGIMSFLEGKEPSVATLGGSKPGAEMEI

[7] = target: CDK4/Cyclin D3 (Homo sapiens) (UniProt P11802+P30281); experiment: (§1) Selectivity interaction (KinomeScan (DiscoverX)) EUB0000618a CDK4; type: protein-complex assay; conditions: at 10 µM
[8] = target: Cyclin-dependent kinase 4/cyclin D1 (Homo sapiens) (UniProt P11802+P24385); experiment: as §1; type: protein-complex assay; conditions: at 10 µM
[9] = target: Tyrosine-protein kinase SYK (Homo sapiens, UniProt P43405)
[10] = target: Vascular endothelial growth factor receptor 3 (Homo sapiens, UniProt P35916); experiment: Selectivity interaction (KinomeScan (DiscoverX)) EUB0000695a FLT4; conditions: at 100 nM
Chain of Vascular endothelial growth factor receptor 3 (P35916 whole entry): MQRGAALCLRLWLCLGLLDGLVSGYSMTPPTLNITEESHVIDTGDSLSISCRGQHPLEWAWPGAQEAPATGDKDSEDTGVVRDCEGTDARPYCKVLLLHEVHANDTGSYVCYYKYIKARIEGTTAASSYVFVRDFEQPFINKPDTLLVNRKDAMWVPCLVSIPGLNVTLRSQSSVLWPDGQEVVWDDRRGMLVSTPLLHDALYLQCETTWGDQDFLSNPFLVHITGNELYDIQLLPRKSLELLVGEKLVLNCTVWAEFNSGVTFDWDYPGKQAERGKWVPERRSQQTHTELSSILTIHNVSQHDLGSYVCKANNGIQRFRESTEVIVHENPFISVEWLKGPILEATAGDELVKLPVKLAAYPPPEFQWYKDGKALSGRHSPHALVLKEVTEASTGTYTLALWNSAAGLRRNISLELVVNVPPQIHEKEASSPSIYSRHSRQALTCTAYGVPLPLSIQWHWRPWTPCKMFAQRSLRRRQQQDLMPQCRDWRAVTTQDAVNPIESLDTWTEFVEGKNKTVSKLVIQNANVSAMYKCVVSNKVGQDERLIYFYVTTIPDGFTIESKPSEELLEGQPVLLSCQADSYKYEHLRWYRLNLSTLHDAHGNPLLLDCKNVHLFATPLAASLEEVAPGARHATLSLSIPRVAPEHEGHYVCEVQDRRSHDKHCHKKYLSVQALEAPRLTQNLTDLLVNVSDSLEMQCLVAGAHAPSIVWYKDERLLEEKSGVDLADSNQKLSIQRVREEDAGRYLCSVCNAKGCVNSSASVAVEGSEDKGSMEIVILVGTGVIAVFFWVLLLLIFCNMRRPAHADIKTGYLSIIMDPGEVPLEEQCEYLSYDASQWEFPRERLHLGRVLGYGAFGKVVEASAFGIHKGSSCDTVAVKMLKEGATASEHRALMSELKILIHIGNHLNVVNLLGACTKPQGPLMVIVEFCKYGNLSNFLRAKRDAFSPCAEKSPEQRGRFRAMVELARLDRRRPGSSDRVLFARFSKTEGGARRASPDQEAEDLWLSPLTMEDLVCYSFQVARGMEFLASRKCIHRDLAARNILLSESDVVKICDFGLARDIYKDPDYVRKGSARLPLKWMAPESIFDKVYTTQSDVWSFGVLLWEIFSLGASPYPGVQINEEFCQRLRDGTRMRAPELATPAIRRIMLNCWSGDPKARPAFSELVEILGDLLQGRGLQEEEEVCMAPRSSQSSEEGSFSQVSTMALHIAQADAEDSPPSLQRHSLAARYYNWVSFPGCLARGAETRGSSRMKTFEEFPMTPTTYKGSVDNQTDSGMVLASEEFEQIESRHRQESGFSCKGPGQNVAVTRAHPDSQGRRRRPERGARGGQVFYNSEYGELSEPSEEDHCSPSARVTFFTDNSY

[11] = target: Serine/threonine-protein kinase 10 (Homo sapiens) (UniProt O94804); experiment: Selectivity interaction (KinomeScan (DiscoverX)) EUB0000607a STK10; conditions: at 10 µM
Chain of Serine/threonine-protein kinase 10 (Homo sapiens) (O94804 whole entry, looked up): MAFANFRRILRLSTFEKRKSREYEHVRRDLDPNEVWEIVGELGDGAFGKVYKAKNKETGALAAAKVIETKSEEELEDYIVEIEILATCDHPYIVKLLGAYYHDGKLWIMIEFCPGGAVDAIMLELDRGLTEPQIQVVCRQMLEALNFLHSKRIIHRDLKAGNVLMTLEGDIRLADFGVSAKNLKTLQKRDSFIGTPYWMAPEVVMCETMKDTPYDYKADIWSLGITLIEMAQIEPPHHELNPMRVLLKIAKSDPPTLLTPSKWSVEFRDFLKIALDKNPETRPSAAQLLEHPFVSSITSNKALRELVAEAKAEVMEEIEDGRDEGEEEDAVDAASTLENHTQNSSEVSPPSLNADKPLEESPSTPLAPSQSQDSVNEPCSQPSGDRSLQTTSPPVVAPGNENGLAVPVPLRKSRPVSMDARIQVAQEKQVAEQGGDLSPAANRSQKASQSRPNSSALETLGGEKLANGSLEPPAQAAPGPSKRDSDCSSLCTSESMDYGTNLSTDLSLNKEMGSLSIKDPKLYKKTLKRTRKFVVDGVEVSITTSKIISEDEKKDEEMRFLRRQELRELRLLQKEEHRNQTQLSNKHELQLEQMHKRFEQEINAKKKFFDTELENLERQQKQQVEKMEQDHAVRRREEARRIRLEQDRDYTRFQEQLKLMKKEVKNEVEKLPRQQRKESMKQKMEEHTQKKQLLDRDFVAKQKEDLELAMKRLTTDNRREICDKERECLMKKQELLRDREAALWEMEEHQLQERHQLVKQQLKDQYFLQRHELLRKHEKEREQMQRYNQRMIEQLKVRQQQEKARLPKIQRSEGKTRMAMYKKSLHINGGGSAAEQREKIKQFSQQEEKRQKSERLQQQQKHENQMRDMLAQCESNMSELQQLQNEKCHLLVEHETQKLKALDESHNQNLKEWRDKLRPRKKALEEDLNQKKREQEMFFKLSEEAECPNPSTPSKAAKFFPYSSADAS

Chain of LIM domain kinase 1 (Homo sapiens) (P53667 whole entry, looked up, the tested form may be a part): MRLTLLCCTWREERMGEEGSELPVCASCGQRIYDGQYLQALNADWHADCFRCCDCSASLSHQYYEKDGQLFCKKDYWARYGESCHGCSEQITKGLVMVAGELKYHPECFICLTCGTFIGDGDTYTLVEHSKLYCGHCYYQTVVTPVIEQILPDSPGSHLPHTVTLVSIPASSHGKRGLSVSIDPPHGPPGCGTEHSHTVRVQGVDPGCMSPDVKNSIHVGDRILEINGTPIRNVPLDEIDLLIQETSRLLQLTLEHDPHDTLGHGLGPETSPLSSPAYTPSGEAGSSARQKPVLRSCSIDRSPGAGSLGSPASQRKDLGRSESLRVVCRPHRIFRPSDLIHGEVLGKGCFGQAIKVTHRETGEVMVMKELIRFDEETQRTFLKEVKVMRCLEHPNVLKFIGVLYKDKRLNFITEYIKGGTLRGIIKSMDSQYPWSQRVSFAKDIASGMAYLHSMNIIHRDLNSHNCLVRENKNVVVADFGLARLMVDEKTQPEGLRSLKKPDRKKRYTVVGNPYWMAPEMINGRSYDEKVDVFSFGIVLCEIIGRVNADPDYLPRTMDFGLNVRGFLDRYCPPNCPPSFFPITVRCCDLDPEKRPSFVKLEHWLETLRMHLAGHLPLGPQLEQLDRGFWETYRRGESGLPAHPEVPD
Chain of Dual specificity protein kinase CLK3 (P49761 whole entry, the tested form may be a part): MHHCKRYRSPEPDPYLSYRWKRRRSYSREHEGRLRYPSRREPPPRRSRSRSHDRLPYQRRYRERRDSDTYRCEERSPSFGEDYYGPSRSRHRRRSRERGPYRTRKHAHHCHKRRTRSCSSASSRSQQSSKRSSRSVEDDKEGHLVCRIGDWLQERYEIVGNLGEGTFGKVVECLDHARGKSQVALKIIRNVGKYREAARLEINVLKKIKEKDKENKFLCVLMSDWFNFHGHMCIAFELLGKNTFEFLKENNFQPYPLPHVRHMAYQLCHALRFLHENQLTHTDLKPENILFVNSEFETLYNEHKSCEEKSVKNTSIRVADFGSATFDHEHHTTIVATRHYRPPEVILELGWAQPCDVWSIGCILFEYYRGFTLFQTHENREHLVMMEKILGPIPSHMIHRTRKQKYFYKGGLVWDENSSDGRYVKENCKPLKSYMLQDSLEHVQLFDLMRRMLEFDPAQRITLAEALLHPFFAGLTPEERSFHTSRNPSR

COc1cc(Nc2nc(C)cc(-c3cnn4nc(OC)ccc34)n2)cc(C(F)(F)F)c1
IC50 [1]: > 10 µM

CC[C@@H]1[C@H](F)C(=O)N[C@@H]1COc1nccc2cc(C(N)=O)c(OC)cc12 [ZIMLOVISERTIB]
% of inhibition [2]: 13.2%
% of inhibition ([3]; at 0.01 µM): 0.5%
% of inhibition ([3]; at 0.04 µM): -0.3%
% of inhibition ([3]; at 0.2 µM): 7.5%
% of inhibition ([3]; at 1 µM): -3.5%
% of inhibition ([3]; at 5 µM): -12.9%
% of inhibition [4]: -8.9%

CN(C)C/C=C/C(=O)Nc1ccc(C(=O)N2CCCC(Nc3ncc(Cl)c(-c4c[nH]c5ccccc45)n3)C2)cc1 (stereo unspecified)
% of control [5]: 99%

C=CC(=O)Nc1cc(-n2c(=O)ccc3cnc4ccc(-c5ccc(NS(C)(=O)=O)cc5)cc4c32)ccc1C
% of control ([6]; at 1 µM): 100%
% of control ([6]; at 10 µM): 77%

O[C@H]1CC[C@H](Nc2ncc3nc(Nc4c(F)cc(F)cc4F)n([C@H]4CCOC4)c3n2)CC1
% of control [7]: 80%
% of control [8]: 100%

CCc1cccc(CC)c1NC(=O)c1nn(C)c2c1CCc1cnc(Nc3ccc(C(=O)NC4CCN(C)CC4)cc3OC(F)(F)F)nc1-2
IC50 [9]: > 10 µM

Cc1cc(F)c(C(=O)Nc2cccc(-c3nncn3C(C)C)n2)cc1-n1cnc(C2CC2)c1
% of control [10]: 100%

CNC(=O)Nc1ccc(-c2nc(N3CC4CCC(C3)O4)c3cnn(C4CCC5(CC4)OCCO5)c3n2)cc1
% of control [11]: 99%
